Measured values taken from PubChem BioAssay AID248 (DTP/NCI, 2004).
“And” between values parts separate entries of the source, which are not always exact repeats. Equal values may be shown once. Inconclusive results and toxic doses are left out. Rule as the data show it: active = T/C of 150% or more; inactive = T/C below 125%.

System: L1210 leukemia ip in BDF1 mice, survival T/C
Assay: NCI In Vivo Anticancer Drug Screen. Data for tumor model L1210 Leukemia (intraperitoneal) in B6D2F1 (BDF1) mice
Conditions: endpoint: mean survival time, higher = longer survival
Summary of the method: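 Tumor was transplanted into mice, which were then dosed with test compound or vehicle alone. Survival was recorded for each group, and the treated figure was expressed relative to the control figure.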

Measured: T/C

COc1cc(N=Nc2ccccc2)ccc1N
inactive: dose: 100.0 mg/kg/injection, schedule: Q01DX001 (ip), vehicle: saline 95 % of control | dose: 100.0 mg/kg/injection, schedule: Q04DX003 (ip), vehicle: acetone 100 % of control and 111 % of control | dose: 200.0 mg/kg/injection, schedule: Q01DX001 (ip), vehicle: saline 112 % of control | dose: 200.0 mg/kg/injection, schedule: Q04DX003 (ip), vehicle: acetone 95 % of control | dose: 400.0 mg/kg/injection, schedule: Q01DX001 (ip), vehicle: saline 96 % of control | dose: 400.0 mg/kg/injection, schedule: Q04DX003 (ip), vehicle: acetone 96 % of control and 91 % of control

CCN1C(=O)/C(=C/c2ccncc2)SC1=S
inactive: dose: 50.0 mg/kg/injection, schedule: Q01DX Z (ip), vehicle: carboxymethylcellulose (CMC) 96 % of control | dose: 100.0 mg/kg/injection, schedule: Q01DX Z (ip), vehicle: carboxymethylcellulose (CMC) 92 % of control | dose: 200.0 mg/kg/injection, schedule: Q01DX Z (ip), vehicle: carboxymethylcellulose (CMC) 94 % of control | dose: 400.0 mg/kg/injection, schedule: Q01DX Z (ip), vehicle: carboxymethylcellulose (CMC) 91 % of control

CC1=CC(=O)C2C(C)(O1)C1C(=O)C=C(C)OC21C (stereo not given)
inactive: dose: 100.0 mg/kg/injection, schedule: Q01DX001 (ip), vehicle: Klucel (hydroxypropylcellulose) (HPC) 93 % of control | dose: 100.0 mg/kg/injection, schedule: Q04DX003 (ip), vehicle: Klucel (hydroxypropylcellulose) (HPC) 101 % of control | dose: 200.0 mg/kg/injection, schedule: Q01DX001 (ip), vehicle: Klucel (hydroxypropylcellulose) (HPC) 101 % of control | dose: 200.0 mg/kg/injection, schedule: Q04DX003 (ip), vehicle: Klucel (hydroxypropylcellulose) (HPC) 100 % of control | dose: 400.0 mg/kg/injection, schedule: Q01DX001 (ip), vehicle: Klucel (hydroxypropylcellulose) (HPC) 104 % of control | dose: 400.0 mg/kg/injection, schedule: Q04DX003 (ip), vehicle: Klucel (hydroxypropylcellulose) (HPC) 92 % of control

Nc1ncc(CNc2ccc(C(=O)NC(CC(=O)O)C(=O)O)cc2)c(N)n1 (stereo not given)
inactive: dose: 100.0 mg/kg/injection, schedule: Q01DX001 (ip), vehicle: saline with Tween-80 93 % of control | dose: 100.0 mg/kg/injection, schedule: Q01DX009 (ip), vehicle: saline with Tween-80 106 % of control | dose: 100.0 mg/kg/injection, schedule: Q04DX003 (ip), vehicle: saline with Tween-80 93 % of control | dose: 200.0 mg/kg/injection, schedule: Q01DX001 (ip), vehicle: saline with Tween-80 105 % of control | dose: 200.0 mg/kg/injection, schedule: Q01DX009 (ip), vehicle: saline with Tween-80 100 % of control | dose: 200.0 mg/kg/injection, schedule: Q04DX003 (ip), vehicle: saline with Tween-80 97 % of control | dose: 400.0 mg/kg/injection, schedule: Q01DX001 (ip), vehicle: saline with Tween-80 100 % of control | dose: 400.0 mg/kg/injection, schedule: Q01DX009 (ip), vehicle: saline with Tween-80 105 % of control | dose: 400.0 mg/kg/injection, schedule: Q04DX003 (ip), vehicle: saline with Tween-80 98 % of control
